Entries after “also recorded” stand apart in the source; their conditions may differ.
Key:
Sprague-Dawley rats [1] = experiment: animal or person
Description: (§1) Adult male Sprague-Dawley rats (250-300 g) were selected for the experiment. […] The anesthesia effects of the compounds were assessed in rats using a LORR assay and a period >30 s was considered as an indicator of general anesthesia.

Sprague-Dawley rats [2] = experiment: Pharmacological characteristics at equivalent doses (2ED50), Group A compounds; type: in vivo; conditions: 2ED50, tail vein
H295R cell line [3] = experiment: Adrenocortical function in vitro test: secretion of cortisol and corticosterone, Group A compounds; type: cell-based; conditions: H295 cells; for EC50: Homo sapiens, 0.1-10000 nM, HPLC-MS/MS
Sprague-Dawley rats [4] = experiment: animal or person; conditions: for ED50: LORR in rats, tail vein, brackets = 95% confidence limit; for Approximate therapeutic index / Minimal lethal dose: rats
Description: as §1

H295R cell line [5] = experiment: Adrenocortical function in vitro test: secretion of cortisol and corticosterone, Group B compounds; type: cell-based; conditions: H295R cells; for EC50: 0.1-10000 nM, HPLC-MS/MS
[6] = read-out: EC50 (Corticosterone)
[7] = Homo sapiens, NCI-H295R, read-out: EC50 (Corticosterone)
[8] = Homo sapiens, NCI-H295R, read-out: EC50 (Cortisol)

SMILES | ED50 (Sprague-Dawley rats [1]; Rattus norvegicus) [mg/kg] | Approximate therapeutic index (Sprague-Dawley rats [1]; rats) | Minimal lethal dose (Sprague-Dawley rats [1]; rats) [mg/kg] | Onset time (Sprague-Dawley rats [2]) [min] | Righting reflex duration (Sprague-Dawley rats [2]) [min] | Types and incidence of adverse reactions (Sprague-Dawley rats [2]; (animals affected/animals)) | Corticosterone as an indicator to determine the presence of inhibition (H295R cell line [3]) | Cortisol as an indicator to determine the presence of inhibition (H295R cell line [3]) | EC50 (H295R cell line [3]; [6]) [nM] | EC50 (H295R cell line [3]; read-out: EC50 (Cortisol)) [nM] | ED50 (Sprague-Dawley rats [4]; Rattus norvegicus) [mg/kg] | Approximate therapeutic index (Sprague-Dawley rats [4]) | Minimal lethal dose (Sprague-Dawley rats [4]) [mg/kg] | Corticosterone as an indicator to determine the presence of inhibition (H295R cell line [5]) | Cortisol as an indicator to determine the presence of inhibition (H295R cell line [5]) | EC50 (H295R cell line [5]; [7]) [nM] | EC50 (H295R cell line [5]; [8]) [nM] | ED50 (Sprague-Dawley rats [4]) | EC50 (H295R cell line [5]; [6]) [nM] | EC50 (H295R cell line [5]; read-out: EC50 (Cortisol)) [nM]
CC(=O)C1(OC(=O)c2ccnn2[C@H](C)c2ccccc2)COC1 [Compound A8] | 1 to 2 | >7 | >9 | 0.57 ± 0.20 | 2.70 ± 2.52 | Red urine(8/8),; also recorded: Tremor(2/8),; also recorded: Euphoria(1/8) | 0 | 0 | > 1000 | > 1000 |  |  |  |  |  |  |  |  |  | 
CCOC(=O)c1c(C(F)(F)F)nnn1[C@H](C)c1ccccc1 [Compound B145] |  |  |  |  |  |  |  |  |  |  | 2 to 10 | >4 | >18 | 0 | 0 | > 3000 | > 3000 |  |  | 
CC(C)OC(=O)c1c(Br)nnn1[C@H](C)c1ccccc1 [Compound B115] |  |  |  |  |  |  |  |  |  |  | 0.5 to 1 | >25 | >18 | 0 | 0 | > 3000 | > 3000 |  |  | 
CC=CC1(OC(=O)c2cnnn2C(C)c2ccccc2)COC1 (mixture of isomers) [Compound B21] |  |  |  |  |  |  |  |  |  |  |  | >11 | >8 | 0 | 0 |  |  | B (B indicates that the measured ED50 is in the range of 0.50-1.00 mg/kg (excluding 0.50 mg/kg, including 1.00 mg/kg)) | > 100 | > 100
CC(=O)C1=C(OC(=O)c2cnnn2[C@H](C)c2ccccc2)CCCC1 [Compound B15] |  |  |  |  |  |  |  |  |  |  | 0.5 to 1 | >9 | >9 | 0 | 0 | > 1000 | > 1000 |  |  | 
C=CC1(OC(=O)c2c(F)nnn2[C@H](C)c2ccccc2)COC1 [Compound B51] |  |  |  |  |  |  |  |  |  |  | 1 to 2 | >12 | >14 | 0 | 0 | > 1000 | > 1000 |  |  | 
C[C@H](c1ccccc1)n1nncc1C(=O)OC1CC1 [Compound B18] |  |  |  |  |  |  |  |  |  |  | 1 to 2 | >12 | >14 | 0 | 0 | > 100 | > 100 |  |  | 
COC(=O)C1=C(OC(=O)c2c(F)nnn2[C@H](C)c2ccccc2)CCC1 [Compound B36] |  |  |  |  |  |  |  |  |  |  | 0.5 to 1 | >7 | >5 | 0 | 0 | > 1000 | > 1000 |  |  | 
C=C=CC1(OC(=O)c2cnnn2[C@H](C)c2ccccc2)CCCCC1 [Compound B11] |  |  |  |  |  |  |  |  |  |  |  | >8 | >6 | 0 | 0 |  |  | B (B indicates that the measured ED50 is in the range of 0.50-1.00 mg/kg (excluding 0.50 mg/kg, including 1.00 mg/kg)) | > 1000 | > 1000
C=C=CC1(OC(=O)c2c(F)nnn2[C@H](C)c2ccccc2)COC1 [Compound B35] |  |  |  |  |  |  |  |  |  |  | 0.04 to 0.5 | >29 | >8 | 0 | 0 | > 1000 | > 1000 |  |  | 
C[C@H](c1ccccc1)n1nncc1C(=O)OCC1CC1 [Compound B7] |  |  |  |  |  |  |  |  |  |  | 0.5 to 1 | >31 | >24 | 0 | 0 | > 100 | > 100 |  |  | 
C=C=CC1(OC(=O)c2c(Br)nnn2[C@H](C)c2ccccc2)COC1 [Compound B101] |  |  |  |  |  |  |  |  |  |  |  | >7 | >13 | 0 | 0 |  |  | C (C indicates that the measured ED50 is in the range of 1.00-2.00 mg/kg (excluding 1.00 mg/kg, including 2.00 mg/kg)) | > 1000 | > 1000
CCOC(=O)c1c(I)nnn1[C@H](C)c1ccccc1 [Compound B127] |  |  |  |  |  |  |  |  |  |  | 0.5 to 1 | >23 | >16 | 0 | 0 | > 3000 | > 3000 |  |  | 
C[C@H](c1ccccc1)n1nnc(Cl)c1C(=O)OC1CCC1 [Compound B70] |  |  |  |  |  |  |  |  |  |  |  | >2 | >15 | 0 | 0 |  |  | D (D indicates that the measured ED50 is in the range of 2.00-10.00 mg/kg (excluding 2.00 mg/kg, including 10.00 mg/kg)) | > 1000 | > 1000
CCOC(=O)c1nnn([C@H](C)c2ccccc2)c1C(F)(F)F [Compound B146] |  |  |  |  |  |  |  |  |  |  |  | >8 | >14 | 0 | 0 |  |  | C (C indicates that the measured ED50 is in the range of 1.00-2.00 mg/kg (excluding 1.00 mg/kg, including 2.00 mg/kg)) | > 3000 | > 3000
C[C@H](c1ccccc1)n1nnc(Br)c1C(=O)OC1CC1 [Compound B116] |  |  |  |  |  |  |  |  |  |  | 1 to 2 | >9 | >12 | 0 | 0 | > 3000 | > 3000 |  |  | 
COC(=O)C1(OC(=O)c2c(Br)nnn2[C@H](C)c2ccccc2)CC1 [Compound B121] |  |  |  |  |  |  |  |  |  |  | 2 to 10 | >3 | >20 | 0 | 0 | > 1000 | > 1000 |  |  | 
C[C@H](c1ccccc1)n1nnc(Br)c1C(=O)OC(C)(C)C [Compound B110] |  |  |  |  |  |  |  |  |  |  |  | >7 | >16 | 0 | 0 |  |  | D (D indicates that the measured ED50 is in the range of 2.00-10.00 mg/kg (excluding 2.00 mg/kg, including 10.00 mg/kg)) | > 3000 | > 3000

From US12570612B2, “Substituted nitrogen heterocyclic compound and anesthetic effect thereof” (priority 2019, dated 2026)
